Laboratory results taken from patent US9115127B2 (AMGEN INC., priority 2010, dated 2015).

Biological target: T1, wild-type human ALK (cytoplasmic domain, amino acids 1058-1620, N-terminal GST fusion) (Homo sapiens, UniProt Q9UM73)
T1 construct: The cytoplasmic domain (amino acids 1058-1620) of wild-type human ALK; GST (N); made in house; host or cells: SF9 insect cells
Experiment: ALK Inhibition in Enzyme Assay (Lance TR-FRET kinase assay)
Assay type: biochemical
Description: ALK Inhibition in Enzyme Assay
Kinase activity of the purified protein was assessed using a Lance® TR-FRET assay. […] The reaction was allowed to proceed for 90 minutes at room temperature and was then terminated with 20 mM EDTA in 50 mM Tris (pH 7.5), 100 mM NaCl, 0.05% BSA, and 0.1% Tween-20. Phosphorylation of the peptide substrate was detected using the Lance® detection reagents streptavidin-allophycocyanin (SA-APC) and Eu-W1024 anti-phosphotyrosine antibody (PT66) from Perkin Elmer Life Sciences (Waltham, Mass.). The plates were read on a RUBY star plate reader (BMG LABTECH, Cary, N.C.) with an excitation wavelength of 320 nm.

T1 sequence (Q9UM73 1058-1620): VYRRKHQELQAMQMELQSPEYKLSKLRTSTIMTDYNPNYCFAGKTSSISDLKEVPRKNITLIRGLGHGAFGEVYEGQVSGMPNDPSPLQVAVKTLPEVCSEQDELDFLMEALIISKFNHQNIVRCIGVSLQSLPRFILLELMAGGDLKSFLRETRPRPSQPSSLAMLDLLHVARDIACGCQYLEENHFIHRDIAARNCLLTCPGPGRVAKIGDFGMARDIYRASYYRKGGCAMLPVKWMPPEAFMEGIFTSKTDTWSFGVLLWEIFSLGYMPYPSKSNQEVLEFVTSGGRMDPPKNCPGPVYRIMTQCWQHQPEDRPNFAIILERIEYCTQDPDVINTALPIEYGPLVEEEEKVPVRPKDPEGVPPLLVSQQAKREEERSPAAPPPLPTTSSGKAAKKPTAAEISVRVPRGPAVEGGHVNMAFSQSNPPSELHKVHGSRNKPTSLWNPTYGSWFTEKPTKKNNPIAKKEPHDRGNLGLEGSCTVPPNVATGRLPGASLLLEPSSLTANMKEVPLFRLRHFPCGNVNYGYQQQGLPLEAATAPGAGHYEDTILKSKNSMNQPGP

Compound | IC50 [nM]
O=C(/N=c1\[nH]c2cnc(OCCN3CCCCC3)cc2n1C1CCNCC1)c1ccccc1 [Example 65, (E)-N-(6-(2-(Piperidin-1-yl)ethoxy)-1-(piperidin-4-yl)-1H-imidazo[4,5-c]pyridin-2(3H)-ylidene)benzamide] | 1000 to 5000
CCS(=O)(=O)N1CCC(n2/c(=N/C(=O)c3ccccc3)[nH]c3cnc(OCCN4CCCCC4)cc32)CC1 [Example 66, (E)-N-(1-(1-(Ethylsulfonyl)piperidin-4-yl)-6-(2-(piperidin-1-yl)ethoxy)-1H-imidazo[4,5-c]pyridin-2(3H)-ylidene)benzamide] | 100 to 1000
CNS(=O)(=O)N1CCC(n2/c(=N/C(=O)c3ccccc3)[nH]c3cnc(OCCN4CCCCC4)cc32)CC1 [Example 67, (E)-N-(1-(1-(N-Methylsulfamoyl)piperidin-4-yl)-6-(2-(piperidin-1-yl)ethoxy)-1H-imidazo[4,5-c]pyridin-2(3H)-ylidene)benzamide] | 100 to 1000
CC(C)CN1CCC(n2/c(=N/C(=O)c3ccccc3)[nH]c3cnc(OCCN4CCCCC4)cc32)CC1 [Example 68, (E)-N-(1-(1-Isobutylpiperidin-4-yl)-6-(2-(piperidin-1-yl)ethoxy)-1H-imidazo[4,5-c]pyridin-2(3H)-ylidene)benzamide] | 5000 to 10000
CC(C)S(=O)(=O)N1CCC(n2/c(=N/C(=O)c3ccccc3)[nH]c3cnc(OCCN4CCCCC4)cc32)CC1 [Example 69, (E)-N-(1-(1-(Isopropylsulfonyl)piperidin-4-yl)-6-(2-(piperidin-1-yl)ethoxy)-1H-imidazo[4,5-c]pyridin-2(3H)-ylidene)benzamide] | 100 to 1000
CC(=O)[C@H]1CC[C@@H](n2/c(=N/C(=O)c3cccc(F)c3)[nH]c3ccc(CN4CCC(C(C)(C)O)CC4)cc32)CC1 [Example 71, (E)-N-(1-(cis-4-Acetylcyclohexyl)-6-((4-(2-hydroxypropan-2-yl)piperidin-1-yl)methyl)-1H-benzo[d]imidazol-2(3H)-ylidene)-3-fluorobenzamide] | 100 to 1000
CC(C)NC(C)[C@H]1CC[C@@H](n2/c(=N/C(=O)c3cccc(F)c3)[nH]c3ccc(CN4CCC(C(C)(C)O)CC4)cc32)CC1 (stereo partly drawn) [Example 72, (E)-3-Fluoro-N-(6-((4-(2-hydroxypropan-2-yl)piperidin-1-yl)methyl)-1-(cis-4-(1-(isopropylamino)ethyl)cyclohexyl)-1H-benzo[d]imidazol-2(3H)-ylidene)benzamide] | < 50
Cc1n[nH]c([C@H]2CC[C@@H](n3/c(=N/C(=O)c4cccc(F)c4)[nH]c4ccc(CO)cc43)CC2)n1 [Example 73, (E)-3-Fluoro-N-(6-(hydroxymethyl)-1-(cis-4-(3-methyl-1H-1,2,4-triazol-5-yl)cyclohexyl)-1H-benzo[d]imidazol-2(3H)-ylidene)benzamide] | 100 to 1000
Cc1n[nH]c([C@H]2CC[C@@H](n3/c(=N/C(=O)c4cccc(F)c4)[nH]c4ccc(CN5CCC(C(C)(C)O)CC5)cc43)CC2)n1 [Example 74, (E)-3-Fluoro-N-(6-((4-(2-hydroxypropan-2-yl)piperidin-1-yl)methyl)-1-(cis-4-(3-methyl-1H-1,2,4-triazol-5-yl)cyclohexyl)-1H-benzo[d]imidazol-2(3H)-ylidene)benzamide] | < 50
CNCC(=O)N1CCC(n2/c(=N/C(=O)c3ccccc3)[nH]c3cnc(OCCN4CCCCC4)cc32)CC1 [Example 75, (E)-N-(1-(1-(2-(Methylamino)acetyl)piperidin-4-yl)-6-(2-(piperidin-1-yl)ethoxy)-1H-imidazo[4,5-c]pyridin-2(3H)-ylidene)benzamide] | 100 to 1000
CN(CC(=O)N1CCC(n2/c(=N/C(=O)c3ccccc3)[nH]c3cnc(OCCN4CCCCC4)cc32)CC1)C(=O)OC(C)(C)C [Example 76, (E)-tert-Butyl 2-(4-(2-(benzoylimino)-6-(2-(piperidin-1-yl)ethoxy)-2,3-dihydro-1H-imidazo[4,5-c]pyridin-1-yl)piperidin-1-yl)-2-oxoethyl(methyl)carbamate] | 1000 to 5000
CCOC(=O)[C@H]1CC[C@@H](n2/c(=N/C(=O)c3cccc(F)c3)[nH]c3cnc(OCCO)cc32)CC1 [Example 77, cis-Ethyl 4-((E)-2-(3-fluorobenzoylimino)-6-(2-hydroxyethoxy)-2,3-dihydro-1H-imidazo[4,5-c]pyridin-1-yl)cyclohexanecarboxylate] | < 50
CCOC(=O)[C@H]1CC[C@@H](n2/c(=N/C(=O)c3cccc(F)c3)[nH]c3cnc(OCCN4CCC(C(C)(C)O)CC4)cc32)CC1 [Example 78, cis-Ethyl 4-((E)-2-(3-fluorobenzoylimino)-6-(2-(4-(2-hydroxypropan-2-yl)piperidin-1-yl)ethoxy)-2,3-dihydro-1H-imidazo[4,5-c]pyridin-1-yl)cyclohexanecarboxylate] | < 50
CC(C)(O)C1CCN(CCOc2cc3c(cn2)[nH]/c(=N\C(=O)c2cccc(F)c2)n3[C@H]2CC[C@@H](C(=O)O)CC2)CC1 [Example 79, cis-4-((E)-2-(3-Fluorobenzoylimino)-6-(2-(4-(2-hydroxypropan-2-yl)piperidin-1-yl)ethoxy)-2,3-dihydro-1H-imidazo[4,5-c]pyridin-1-yl)cyclohexanecarboxylic acid] | 1000 to 5000
CC(C)(O)C1CCN(CCOc2cc3c(cn2)[nH]/c(=N\C(=O)c2cccc(F)c2)n3[C@H]2CC[C@@H](C(=O)N3CC(F)(F)C3)CC2)CC1 [Example 80, (E)-N-(1-(cis-4-(3,3-Difluoroazetidine-1-carbonyl)cyclohexyl)-6-(2-(4-(2-hydroxypropan-2-yl)piperidin-1-yl)ethoxy)-1H-imidazo[4,5-c]pyridin-2(3H)-ylidene)-3-fluorobenzamide] | < 50
CC(C)(O)C1CCN(CCOc2cc3c(cn2)[nH]/c(=N\C(=O)c2cccc(F)c2)n3[C@H]2CC[C@@H](C(=O)N3CC(O)C3)CC2)CC1 [Example 81, (E)-3-Fluoro-N-(1-(cis-4-(3-hydroxyazetidine-1-carbonyl)cyclohexyl)-6-(2-(4-(2-hydroxypropan-2-yl)piperidin-1-yl)ethoxy)-1H-imidazo[4,5-c]pyridin-2(3H)-ylidene)benzamide] | 100 to 1000
COC(=O)[C@H]1CC[C@@H](n2/c(=N/C(=O)c3ccc(F)cc3)[nH]c3ccc(CN4CCOCC4)cc32)CC1 [Example 85, cis-Methyl 4-((E)-2-(4-fluorobenzoylimino)-6-(morpholinomethyl)-2,3-dihydro-1H-benzo[d]imidazol-1-yl)cyclohexanecarboxylate] | < 50
CC(C)NC(=O)[C@H]1CC[C@@H](n2c(N)nc3cnc(OCCN4CCCCC4)cc32)CC1 [Example 86, cis-4-(2-Amino-6-(2-(piperidin-1-yl)ethoxy)-1H-imidazo[4,5-c]pyridin-1-yl)-N-isopropylcyclohexanecarboxamide] | 5000 to 10000
CC(C)NC(=O)[C@H]1CC[C@@H](n2/c(=N/C(=O)c3ccc4ccsc4c3)[nH]c3cnc(OCCN4CCCCC4)cc32)CC1 [Example 87, (E)-N-(1-(cis-4-(Isopropylcarbamoyl)cyclohexyl)-6-(2-(piperidin-1-yl)ethoxy)-1H-imidazo[4,5-c]pyridin-2(3H)-ylidene)benzo[b]thiophene-6-carboxamide] | 50 to 100
CC(C)NC(=O)[C@H]1CC[C@@H](n2/c(=N/C(=O)c3cncs3)[nH]c3cnc(OCCN4CCCCC4)cc32)CC1 [Example 88, (E)-N-(1-(cis-4-(Isopropylcarbamoyl)cyclohexyl)-6-(2-(piperidin-1-yl)ethoxy)-1H-imidazo[4,5-c]pyridin-2(3H)-ylidene)thiazole-5-carboxamide] | 50 to 100
CC(C)NC(=O)[C@H]1CC[C@@H](n2/c(=N/C(=O)c3ccc(C#N)cc3)[nH]c3cnc(OCCN4CCCCC4)cc32)CC1 [Example 89, (E)-4-Cyano-N-(1-(cis-4-(isopropylcarbamoyl)cyclohexyl)-6-(2-(piperidin-1-yl)ethoxy)-1H-imidazo[4,5-c]pyridin-2(3H)-ylidene)benzamide] | < 50
CC(C)NC(=O)[C@H]1CC[C@@H](n2/c(=N/C(=O)c3ccncc3)[nH]c3cnc(OCCN4CCCCC4)cc32)CC1 [Example 90, (E)-N-(1-(cis-4-(Isopropylcarbamoyl)cyclohexyl)-6-(2-(piperidin-1-yl)ethoxy)-1H-imidazo[4,5-c]pyridin-2(3H)-ylidene)isonicotinamide] | < 50
CC(C)NC(=O)[C@H]1CC[C@@H](n2/c(=N/C(=O)c3cccc(C#N)c3)[nH]c3cnc(OCCN4CCCCC4)cc32)CC1 [Example 91, (E)-3-Cyano-N-(1-(cis-4-(isopropylcarbamoyl)cyclohexyl)-6-(2-(piperidin-1-yl)ethoxy)-1H-imidazo[4,5-c]pyridin-2(3H)-ylidene)benzamide] | < 50
CC(C)NC(=O)[C@H]1CC[C@@H](n2/c(=N/C(=O)c3cccc(C(F)(F)F)c3)[nH]c3cnc(OCCN4CCCCC4)cc32)CC1 [Example 92, (E)-N-(1-(cis-4-(Isopropylcarbamoyl)cyclohexyl)-6-(2-(piperidin-1-yl)ethoxy)-1H-imidazo[4,5-c]pyridin-2(3H)-ylidene)-3-(trifluoromethyl)benzamide] | < 50
CC(C)NC(=O)[C@H]1CC[C@@H](n2/c(=N/C(=O)c3cccc(S(C)(=O)=O)c3)[nH]c3cnc(OCCN4CCCCC4)cc32)CC1 [Example 93, (E)-N-(1-(cis-4-(Isopropylcarbamoyl)cyclohexyl)-6-(2-(piperidin-1-yl)ethoxy)-1H-imidazo[4,5-c]pyridin-2(3H)-ylidene)-3-(methylsulfonyl)benzamide] | 1000 to 5000
CC(C)NC(=O)[C@H]1CC[C@@H](n2/c(=N/C(=O)c3ccc(F)cc3F)[nH]c3cnc(OCCN4CCCCC4)cc32)CC1 [Example 94, (E)-2,4-Difluoro-N-(1-(cis-4-(isopropylcarbamoyl)cyclohexyl)-6-(2-(piperidin-1-yl)ethoxy)-1H-imidazo[4,5-c]pyridin-2(3H)-ylidene)benzamide] | 50 to 100
